In patent US20080161288A1, “COMPOUNDS” (Pfizer Inc., priority 2006, published 2008):

Tests used:
[1] = target: T1, bovine beta-2 adrenoceptor (Bos taurus, UniProt Q28044); experiment: cAMP assay in CHO cells transfected with the bovine beta-2 adrenoceptor; type: cell-based; settings: cAMP (DiscoveRx Hit Hunter cAMP II) in CHO cells transfected with bovine beta-2 adrenoceptor, 30 minutes with compound, 0.5 mM IBMX
T1 construct: expressed in transfected cells; host or cells: CHO cells
Experimental: (§1) CHO cells transfected with the bovine or porcine beta-2 adrenceptors were maintained in culture in DMEM/HAMS F12+10% FBS+2 mM glutamine+500 μg/ml geneticin (for the porcine receptor the medium was supplement with 1.5 mM HEPES) at 37° C. with a 5% CO2 atmosphere.
(§2) Cells were plated into 96 well viewplates in medium and incubated overnight at 37° C. with a 5% CO2 atmosphere. The cells were pre-incubated with 0.5 mM IBMX in PBS for 30 minutes prior to incubation with increasing concentrations of experimental compound (5×10^−12 to 10^−5 M) for 30 minutes at 37° C. with a 5% CO2 atmosphere. At the end of the incubation time the compound was removed and the cells assayed for cAMP using the DiscoveRx Hit Hunter cAMP II™ assay kit.
(§3) Duplicate samples were run for each experimental compound and the data generated was analysed using EC50 analysis software in Graphpad Prism.

[2] = target: T2, porcine beta-2 adrenoceptor (Sus scrofa, UniProt Q28997); experiment: cAMP assay in CHO cells transfected with the porcine beta-2 adrenoceptor; type: cell-based; settings: cAMP (DiscoveRx Hit Hunter cAMP II) in CHO cells transfected with porcine beta-2 adrenoceptor, 30 minutes with compound, 0.5 mM IBMX
T2 construct: expressed in transfected cells; host or cells: CHO cells
Experimental: as §1, §2, §3

T1 sequence (Q28044 whole entry): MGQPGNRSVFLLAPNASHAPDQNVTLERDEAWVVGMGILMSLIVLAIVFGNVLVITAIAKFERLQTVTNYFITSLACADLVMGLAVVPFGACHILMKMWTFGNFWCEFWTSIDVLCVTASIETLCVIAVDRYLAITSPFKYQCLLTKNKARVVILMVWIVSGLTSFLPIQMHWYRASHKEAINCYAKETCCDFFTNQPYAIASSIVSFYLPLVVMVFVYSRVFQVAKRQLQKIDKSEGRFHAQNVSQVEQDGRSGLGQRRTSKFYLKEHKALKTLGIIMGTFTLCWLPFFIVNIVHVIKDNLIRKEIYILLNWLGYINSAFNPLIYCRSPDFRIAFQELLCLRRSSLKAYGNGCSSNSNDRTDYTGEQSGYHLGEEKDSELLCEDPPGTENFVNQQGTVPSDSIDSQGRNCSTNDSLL
T2 sequence (Q28997 whole entry): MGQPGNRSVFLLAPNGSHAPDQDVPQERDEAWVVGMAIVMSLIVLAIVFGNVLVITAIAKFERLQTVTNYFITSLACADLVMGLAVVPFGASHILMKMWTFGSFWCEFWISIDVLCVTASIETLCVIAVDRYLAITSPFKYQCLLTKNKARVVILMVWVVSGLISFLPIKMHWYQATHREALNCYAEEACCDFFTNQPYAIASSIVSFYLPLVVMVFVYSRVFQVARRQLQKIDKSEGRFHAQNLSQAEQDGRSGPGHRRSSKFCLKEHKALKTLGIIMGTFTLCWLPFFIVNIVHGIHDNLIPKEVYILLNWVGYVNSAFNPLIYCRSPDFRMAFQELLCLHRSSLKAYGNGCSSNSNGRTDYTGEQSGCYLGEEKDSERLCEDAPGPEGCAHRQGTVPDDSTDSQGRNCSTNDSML

Compound | EC50 [1] [nM] | EC50 [2] [nM]
CC(CCc1ccc2c(c1)CCO2)N[C@@H]1CCn2c(=O)[nH]c3cccc(c32)[C@H]1O (single isomer, unassigned) [Example 3b, 6-{[3-(2,3-Dihydro-1-benzofuran-5-yl)-1-methylpropyl]amino}-7-hydroxy-4,5,6,7-tetrahydroimidazo[4,5,1-jk][1]benzazepin-2(1H)-one] | 456 | 108
CC(CCc1cccc(O)c1)N[C@@H]1CCn2c(=O)[nH]c3cccc(c32)[C@H]1O (mixture of isomers) [Example 43, 7-Hydroxy-6-{[3-(3-hydroxyphenyl)-1-methylpropyl]amino}-4,5,6,7-tetrahydroimidazo[4,5,1-jk][1]benzazepin-2(1H)-one] | 7.2 | 5.6
CC(CCc1cc(C#N)ccc1O)N[C@@H]1CCn2c(=O)[nH]c3cccc(c32)[C@H]1O (mixture of isomers) [Example 22, 4-Hydroxy-3-(3-{[7-hydroxy-2-oxo-1,2,4,5,6,7-hexahydroimidazo[4,5,1-jk][1]benzazepin-6-yl]amino}butyl)benzonitrile] | 1.2 | 2.3
CC(CCc1cc(F)ccc1O)N[C@@H]1CCn2c(=O)[nH]c3cccc(c32)[C@H]1O (single isomer, unassigned) [Example 7b, 6-{[3-(5-Fluoro-2-hydroxyphenyl)-1-methylpropyl]amino}-7-hydroxy-4,5,6,7-tetrahydroimidazo[4,5,1-jk][1]benzazepin-2(1H)-one] | 0.3 | 0.5
Cc1ccccc1CCC(C)N[C@@H]1CCn2c(=O)[nH]c3cccc(c32)[C@H]1O (mixture of isomers) [Example 13b, 7-hydroxy-6-{[1-Methyl-3-(2-methylphenyl)propyl]amino}-4,5,6,7-tetrahydroimidazo[4,5,1-jk][1]benzazepin-2(1H)-one] | 2 | 0.9
CC(CCc1ccc(C(=O)O)cc1)NC1CCn2c(=O)[nH]c3cccc(c32)C1O (single isomer, unassigned) [Example 68, 4-[3-{[7-Hydroxy-2-oxo-1,2,4,5,6,7-hexahydroimidazo[4,5,1-jk][1]benzazepin-6-yl]amino}butyl]benzoic acid] | 198 | 128
CC(CCc1ccc(O)c(F)c1)NC1CCn2c(=O)[nH]c3cccc(c32)C1O (single isomer, unassigned) [Example 36, 6-{[3-(3-Fluoro-4-hydroxyphenyl)-1-methylpropyl]amino}-7-hydroxy-4,5,6,7-tetrahydroimidazo[4,5,1-jk][1]benzazepin-2(1H)-one] | 1.4 | 2.2
CC(CCc1cc(F)cc(F)c1O)N[C@@H]1CCn2c(=O)[nH]c3cccc(c32)[C@H]1O (mixture of isomers) [Example 10b, 6-{[3-(3,5-Difluoro-2-hydroxyphenyl)-1-methylpropyl]amino}-7-hydroxy-4,5,6,7-tetrahydroimidazo[4,5,1-jk][1]benzazepin-2(1H)-one] | 0.8 | 1.7
CC(CCc1ccc(O)c(C(F)(F)F)c1)NC1CCn2c(=O)[nH]c3cccc(c32)C1O (single isomer, unassigned) [Example 60, 7-Hydroxy-6-({3-[4-hydroxy-3-(trifluoromethyl)phenyl]-1-methylpropyl}amino)-4,5,6,7-tetrahydroimidazo[4,5,1-jk][1]benzazepin-2(1H)-one] | 10.5 | 15.9
CC(CCc1cccc(NS(C)(=O)=O)c1)NC1CCn2c(=O)[nH]c3cccc(c32)C1O (single isomer, unassigned) [Example 65] | 74.7 | 31.5
CC(CCc1ccccc1)N[C@@H]1CCn2c(=O)[nH]c3cccc(c32)[C@H]1O (single isomer, unassigned) [Example 9e, 7-Hydroxy-6-[(1-methyl-3-phenylpropyl)amino]-4,5,6,7-tetrahydroimidazo[4,5,1-jk][1]benzazepin-2(1H)-one] | 7 | 2.3
COC(=O)c1ccc(CC[C@@H](C)N[C@@H]2CCn3c(=O)[nH]c4cccc(c43)[C@H]2O)cc1 (single isomer, unassigned) [Example 70, Methyl 4-[3-{[7-hydroxy-2-oxo-1,2,4,5,6,7-hexahydroimidazo[4,5,1-jk][1]benzazepin-6-yl]amino}butyl]benzoate] | 8.2 | 6.2
C[C@H](CCc1ccc(N)cc1)N[C@@H]1CCn2c(=O)[nH]c3cccc(c32)[C@H]1O (single isomer, unassigned) [Example 45, 6-{[3-(4-Aminophenyl)-1-methylpropyl]amino}-7-hydroxy-4,5,6,7-tetrahydroimidazo[4,5,1-jk][1]benzazepin-2(1H)-one] | 30.3 | 21
CC(CCc1ccc(OCC2CC2)cc1)N[C@@H]1CCn2c(=O)[nH]c3cccc(c32)[C@H]1O (mixture of isomers) [Example 1c, 6-({3-[4-(Cyclopropylmethoxy)phenyl]-1-methylpropyl}amino)-7-hydroxy-4,5,6,7-tetrahydroimidazo[4,5,1-jk][1]benzazepin-2(1H)-one] | 12.2 | 4.8
CC(CCc1cccc(C(N)=O)c1)NC1CCn2c(=O)[nH]c3cccc(c32)C1O (single isomer, unassigned) [Example 66, 3-[3-{[7-Hydroxy-2-oxo-1,2,4,5,6,7-hexahydroimidazo[4,5,1-jk][1]benzazepin-6-yl]amino}butyl]benzamide] | 137 | 141
C[C@H](CCc1ccccc1O)N[C@@H]1CCn2c(=O)[nH]c3cccc(c32)[C@H]1O [Example 6f, 7-Hydroxy-6-{[3-(2-hydroxyphenyl)-1-methylpropyl]amino}-4,5,6,7-tetrahydroimidazo[4,5,1-jk][1]benzazepin-2(1H)-one] | 1 | 1.9
CC(C=Cc1cccc(O)c1)NC1CCn2c(=O)[nH]c3cccc(c32)C1O (stereo not shown) [Example 41, 7-Hydroxy-6-{[3-(3-hydroxyphenyl)-1-methylprop-2-en-1-yl]amino}-4,5,6,7-tetrahydroimidazo[4,5,1-jk][1]benzazepin-2(1H)-one] | 13.3 | 6.6
CC(CCc1cccc(F)c1O)N[C@@H]1CCn2c(=O)[nH]c3cccc(c32)[C@H]1O (mixture of isomers) [Example 28b, 6-{[3-(3-Fluoro-2-hydroxyphenyl)-1-methylpropyl]amino}-7-hydroxy-4,5,6,7-tetrahydroimidazo[4,5,1-jk][1]benzazepin-2(1H)-one] | 55 | 80
CC(CCc1cc(Cl)ccc1O)N[C@@H]1CCn2c(=O)[nH]c3cccc(c32)[C@H]1O (single isomer, unassigned) [Example 19b, 6-{[3-(5-Chloro-2-hydroxyphenyl)-1-methylpropyl]amino}-7-hydroxy-4,5,6,7-tetrahydroimidazo[4,5,1-jk][1]benzazepin-2(1H)-one] | 123 | 101
CC(CCc1ccccc1NC(=O)C(F)(F)F)N[C@@H]1CCn2c(=O)[nH]c3cccc(c32)[C@H]1O (single isomer, unassigned) [Example 51, 2,2,2-Trifluoro-N-{2-[3-{[7-hydroxy-2-oxo-1,2,4,5,6,7-hexahydroimidazo[4,5,1-jk][1]benzazepin-6-yl]amino}butyl]phenyl}acetamide] | 3.6 | 11
CC(CCc1ccc(O)cc1)N[C@@H]1CCn2c(=O)[nH]c3cccc(c32)[C@H]1O (single isomer, unassigned) [Example 2c, 7-Hydroxy-6-{[3-(4-hydroxyphenyl)-1-methylpropyl]amino}-4,5,6,7-tetrahydroimidazo[4,5,1-jk][1]benzazepin-2(1H)-on] | 13.1 | 2.9
CC(CCc1ccc(C(F)(F)F)cc1)N[C@@H]1CCn2c(=O)[nH]c3cccc(c32)[C@H]1O (mixture of isomers) [Example 18, 7-Hydroxy-6-({1-methyl-3-[4-(trifluoromethyl)phenyl]propyl}amino)-4,5,6,7-tetrahydroimidazo[4,5,1-jk][1]benzazepin-2(1H)-one] | 29.6 | 10.7
COc1ccc(CCC(C)NC2CCn3c(=O)[nH]c4cccc(c43)C2O)cc1 (stereo not shown) [Example 34, 7-Hydroxy-6-{[3-(4-methoxyphenyl)-1-methylpropyl]amino}-4,5,6,7-tetrahydroimidazo[4,5,1-jk][1]benzazepin-2(1H)-one] | 20.3 | 30.4
CC(CCc1cc(F)ccc1O)N[C@@H]1CCn2c(=O)[nH]c3cccc(c32)[C@H]1O (single isomer, unassigned) [Example 7a, 6-{[3-(5-Fluoro-2-hydroxyphenyl)-1-methylpropyl]amino}-7-hydroxy-4,5,6,7-tetrahydroimidazo[4,5,1-jk][1]benzazepin-2(1H)-one] | 77.7 | 104
CC(CCc1cc(Cl)ccc1O)N[C@@H]1CCn2c(=O)[nH]c3cccc(c32)[C@H]1O (single isomer, unassigned) [Example 19a, 6-{[3(5-Chloro-2-hydroxyphenyl)-1-methylpropyl]amino}-7-hydroxy-4,5,6,7-tetrahydroimidazo[4,5,1-jk][1]benzazepin-2(1H)-one] | 0.6 | 0.9
CC(CCc1ccc(O)cc1)N[C@@H]1CCn2c(=O)[nH]c3cccc(c32)[C@H]1O (single isomer, unassigned) [Example 2a, 7-Hydroxy-6-{[3-(4-hydroxyphenyl)-1-methylpropyl]amino}-4,5,6,7-tetrahydroimidazo[4,5,1-jk][1]benzazepin-2(1H)-on] | 13.4 | 6.1
